Measurements from patent US20150238483A1, “Traitement des neuronopathies motrices” (CENTRE NATIONAL DE LA RECHERCHE SCIENTIFIQUE- CNRS, priority 2012, published 2015).
Structures can show the parent of a compound that is named as a salt. Where two headings read alike, the source gives them in different places.

Key:
[1] = system: immortalized SMA fibroblasts; experiment: Distribution of the SMN protein to Cajal bodies (CBs) in immortalized SMA fibroblasts, immunolabeling, cells counted; type: cell-based, human; conditions: for induction factor of cells with SMN protein in CBs (DMSO = 1): 24 hours of treatment at 2 micrograms/ml, immortalized SMA fibroblasts; for Maximum induction: at 2 μg/ml, DMSO = 1; for Maximum induction / Dilution at EC50: immortalized type I line; for Dilution at EC50: dilution relative to 2 μg/ml
Method: This immortalization is described in the publication Lefebvre S, Burlet P, Viollet L, Bertrandy S, Huber C, Belser C and Munnich A. A novel association of the SMN protein with major non-ribosomal nucleolar proteins and its implication in spinal muscular atrophy. Hum Mol Genet (2002) 11 (9): 1017-1027.
The blockers of the invention are commercially available (for example from Sigma-Aldrich) and are sold in 96-well plates, at 2 milligrams per molecule per well to be dissolved in 1 ml of DMSO.
In order to determine whether the calcium channel blockers exerted a positive effect, the inventors counted the cells which had the SMN protein located in the CBs out of 100 cells randomly selected for each experiment.
This experiment was repeated three times.
A value of induction by a factor equal to 1 was arbitrarily assigned to DMSO.
In order to evaluate the relationship between the concentration (dose) and the effect (response) on the CBs of the immortalized SMA cells, the inventors constructed a dose-response curve for each of the molecules.

[2] = humans, cited from earlier work; for maximum plasma level: oral, 10 mg per day
immortalized SMA cells = experiment: Co-immunolabeling of coilin and TMG cap: snRNPs at the level of CBs in immortalized SMA cells; type: cell-based, human; conditions: 24 hours of treatment; chi-2, 0.001<p<0.01; n=300 cells
Method: Co-immunolabeling experiments similar to the previous ones were carried out on the immortalized SMA cells using two commercial antibodies, one specific for the coilin protein (CBs marker) and the other for the trimethylguanosine (TMG) cap of the small nuclear RNAs of snRNPs.
These tests show an increase in the SMN protein and in the snRNPs in Cajal bodies in the immortalized SMA line from the severe form of the disease (type I), induced by the calcium channel blockers of the invention. The mean value for the snRNPs is calculated from the three experiments (n=300 cells).

[3] = system: amyotrophic lateral sclerosis; conditions: ALS patients; cited from earlier work

| Compound | induction factor of cells with SMN protein in CBs (DMSO = 1) [1] | Maximum induction [1] | Dilution at EC50 [1] | other results |
| --- | --- | --- | --- | --- |
| CCCCc1oc2ccccc2c1C(=O)c1cc(I)c(OCCN(CC)CC)c(I)c1 [Amiodarone hydrochloride, (2-butyl-3-benzofuranyl)[4-[2-(diethylamino)ethoxy]-3,5-diiodophenyl]methanone hydrochloride] | approximately 2.8 | 2.8 ± 1.0 | – | – |
| Fc1ccc(C(c2ccc(F)cc2)N2CCN(C/C=C/c3ccccc3)CC2)cc1 [Flunarizine dihydrochloride, flunarizine dihydrochloride] | approximately 4.8 | 4.8 ± 1.5 | 1/53 | maximum plasma level [2]: approximately 81±16 nanograms/ml; maximum plasma level ([2]; converted from ng/ml): approximately 170±34 nM; elimination half-life [2]: long; snRNPs at the level of the CBs (immortalized SMA cells): significant increase; induction factor of SMN protein distribution to CBs (DMSO = 1) ([1]; compounds diluted to 1/1000 compared with examples 1 and 2, FIG. 1): 1.2 |
| NCC1(CC(=O)O)CCCCC1 [Gabapentin, 2-[1-(aminomethyl)cyclohexyl]acetic acid] | approximately 3.3 | 4.4 ± 1.0 | 1/55 | EC50 ([1]; Homo sapiens, Fibroblast): 210 ± 38 nM |
| Nc1nc2ccc(OC(F)(F)F)cc2s1 [Riluzole] | – | – | – | improvement of patient prognosis [3]: 30% |
| CC(C)C[C@H](CN)CC(=O)O [pregabalin] | 1.7 | – | – | – |
